A word on the pIC50: it is −log10 of the IC50, conventionally taken in molar units.

The structures appear in SMILES notation. pIC50: −log10 of the molar value. Where “and” joins values, the source holds several entries; their conditions need not be identical. Identical values can stand only once.

From patent US5990083A, “Multicatalytic protease inhibitors” (Cephalon, Inc., priority 1997, dated 1999) come the findings set out here.

Experiment [1] deals with control soleus muscle. Briefly: Effect of MCP inhibitors on control muscle protein content. The format is in vivo, rat. The conditions noted are these: Table 1; treated soleus versus vehicle-injected contralateral muscle. From the text:
Juvenile female Sprague-Dawley rates (80-90 g) were tail-cast, hind limb suspended as in Jetspers, S. R. and Tischler, M. E., (1984) J. Appl. Physiol. 57: 1472-1479. The animal's hind limbs were elevated above the floor of the cage with each animal housed individually. Animals had free access to food and water, and were weighed at the time of suspension and at time of termination. During the suspension period the animals were checked daily to ensure that their toes were not touching the floor of the cage, and that there was no swelling of the tail due to the cast.
Animals were treated as in group B, except that 1 mM MCP inhibitor, contained in dimethysulfoxide (DMSO), was injected into the soleus of one leg and DMSO only into the contralateral soleus. Thus each experiment consisted of two control groups and the testing of MCP inhibitors of the invention. The completion of five such experiments with different pairs of inhibitors provided for an "n" value of 10 for testing each MCP inhibitor and with each tested in two different shipments of animals.
After the animal was sacrificed, the soleus was excised, trimmed of fat and connective tissue, and carefully weighed. The muscle was then homogenized in 10% trichloroacetic acid (TCA) and the precipitated protein pelleted by centrifugation. The pellet was then washed once with 10% TCA and once with ethanol:ether (1:1). The final pellet was solubilized in 4 ml of 1N sodium hydroxide. The sample was then analyzed for protein content by the biuret procedure, using albumin as a standard.
The effect of MCP inhibitors on total muscle protein content was examined primarily by paired comparison with the untreated contralateral muscle. The ratio of contents was calculated and then analyzed statistically by analysis of variance ("ANOVA"). The left leg was always the treated leg so that the protein content ratios could be compared to the non-treated control animals as well. In this way, a significant difference can be shown by comparing the protein content of the two legs, as well as the relative effectiveness of the tested MCP inhibitors. […]

The target of experiment [2] is T1, human MCP (Homo sapiens, UniProt P28074+Q99436).
T1 construct: Samples of human liver and brain obtained post-mortem were used for isolation and partial purification of MCP; from tissue; host or cells: human liver and brain, post-mortem
The experiment in a line: Determination of IC50 values for MCP inhibitors (chymotrypsin-like or trypsin-like activity of MCP). The format is biochemical. The conditions noted are these: Table 5, first series; enzyme incubated with inhibitor 15 minutes at 37° C. prior to substrate. The method, boiled down: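 Partially purified human liver/brain MCP was activated with 0.04% SDS and preincubated with compound 15 min at 37 °C before substrate. Chymotrypsin-like activity used 100 μM MeOSuc-EVKM-pNA (490 nm) or MeOSuc-FLF-AMC. Trypsin-like activity used 100 μM Z-FR-AMC in Tris-glycerol pH 9.5 with 1 mM 2-mercaptoethanol; IC50 came from linear-rate hydrolysis.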

Turning to `CC(C)C[C@@H](C=O)NC(=O)[C@H](CCCNC(=N)N[N+](=O)[O-])NC(=O)C(CCCCCCCCC#N)C1CCCC1` (stereo partly drawn) [Compound 14, 10-cyano-2-cyclopentyldecanoyl-N^g-nitro-L-arginyl-L-leucinal], the “Protein, Treatment (control muscle)” value in experiment [1] is given as 6.1 mg/muscle. For the same compound, the negative-log IC50 (pIC50) in experiment [2] was 8.15 and 8.22.

As for `COC(=O)CCCCCCCC(C(=O)N[C@@H](CCCNC(=N)NS(=O)(=O)c1c(C)c(C)c2c(c1C)CCC(C)(C)O2)C(=O)N[C@H](C=O)CC(C)C)C1CCCC1` (stereo partly drawn) [Compound 20, 9-Methoxycarbonyl-2-cyclopentyl-nonanoyl-N^g-(2,2,5,7,8-pentamethylchroman-6-sulfonyl)-L-arginyl-L-leucinal], the “Protein, Treatment (control muscle)” value in experiment [1] is reported as 5.9 mg/muscle. In addition, in experiment [2], the pIC50 is 8.00.
